Columns and labels:
Conditions in all cases: 48 h
NOMO1 [1] = experiment: cell viability relative to DMSO control; higher = less cytotoxic
Method in brief: (§1)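 In 1536-well plates, 5 μl of leukemia cells were seeded per well: 500 cells/well for NOMO1 or SEM and 1000 cells/well for P12-Ichikawa. Each line had first been adapted for at least four passages in each medium. Library compounds in DMSO were pin-dosed at 11 threefold concentrations between 47 μM and 0.79 nM, and CellTiter-Glo One luminescence was read after 48 h at 37°C. Viability is a per-plate percentage relative to DMSO wells, with cell-free wells as background.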

P12-Ichikawa [2] = experiment: as above
Method in brief: as §1

SEM cells [3] = experiment: as above
Method in brief: as §1

NOMO1 [4] = experiment: AUC of viability dose-response curve (% viability x log10 dose units); higher = less sensitive
Method in brief: (§2)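 Area under the curve was integrated by trapezoidal rule from a log-logistic fit of normalised viability, with curves exceeding full viability scaled and quality-control failures removed. The fit had four parameters over log10 doses. Viability came from CellTiter-Glo One luminescence, normalised per plate to DMSO and cell-free wells, after leukemia cells adapted to each medium (500 or 1000 cells/well, 1536-well plates) were exposed to library compounds in DMSO for 48 h at 37°C. The 11 threefold doses ran from 47 μM to 0.79 nM.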

P12-Ichikawa [5] = experiment: as above
Method in brief: as §2

SEM cells [6] = experiment: as above
Method in brief: as §2

CON(C)C(=O)N1/N=C(S[C@@]1(CCCN)C2=CC=CC=C2)/C3=CC(=CC=C3F)F
cell viability [%]
Conditions	NOMO1 [1]	P12-Ichikawa [2]	SEM cells [3]
HPLM + 10% dialyzed FBS, 0.000781 µM	119	102	96.3
HPLM + 10% dialyzed FBS, 0.00234 µM	113	118	99.9
HPLM + 10% dialyzed FBS, 0.00702 µM	117	122	42.5
HPLM + 10% dialyzed FBS, 0.0211 µM	87.5	83.1	21.7
HPLM + 10% dialyzed FBS, 0.0632 µM	34.4	12.1	23.9
HPLM + 10% dialyzed FBS, 0.19 µM	35.8	10.6	24.4
HPLM + 10% dialyzed FBS, 0.569 µM	38.6	10.1	22
HPLM + 10% dialyzed FBS, 1.71 µM	38.1	10.1	21.3
HPLM + 10% dialyzed FBS, 5.12 µM	24.6	9	10.6
HPLM + 10% dialyzed FBS, 15.4 µM	36.3	11.4	19.7
HPLM + 10% dialyzed FBS, 46.1 µM	21.6	10.7	15.3
RPMI 5 mM glucose + 10% FBS, 0.000781 µM	115	101	–
RPMI 5 mM glucose + 10% FBS, 0.00234 µM	114	114	–
RPMI 5 mM glucose + 10% FBS, 0.00702 µM	133	123	–
RPMI 5 mM glucose + 10% FBS, 0.0211 µM	69.4	61.1	–
RPMI 5 mM glucose + 10% FBS, 0.0632 µM	23.8	13.7	–
RPMI 5 mM glucose + 10% FBS, 0.19 µM	32.3	12.6	–
RPMI 5 mM glucose + 10% FBS, 0.569 µM	22.3	14.3	–
RPMI 5 mM glucose + 10% FBS, 1.71 µM	27.6	10.8	–
RPMI 5 mM glucose + 10% FBS, 5.12 µM	23	8.36	–
RPMI 5 mM glucose + 10% FBS, 15.4 µM	25.3	9.67	–
RPMI 5 mM glucose + 10% FBS, 46.1 µM	21.1	11.1	–
RPMI 5 mM glucose + 10% dialyzed FBS, 0.000781 µM	–	–	100
RPMI 5 mM glucose + 10% dialyzed FBS, 0.00234 µM	–	–	114
RPMI 5 mM glucose + 10% dialyzed FBS, 0.00702 µM	–	–	111
RPMI 5 mM glucose + 10% dialyzed FBS, 0.0211 µM	–	–	30.4
RPMI 5 mM glucose + 10% dialyzed FBS, 0.0632 µM	–	–	24.4
RPMI 5 mM glucose + 10% dialyzed FBS, 0.19 µM	–	–	22.7
RPMI 5 mM glucose + 10% dialyzed FBS, 0.569 µM	–	–	24.1
RPMI 5 mM glucose + 10% dialyzed FBS, 1.71 µM	–	–	24.8
RPMI 5 mM glucose + 10% dialyzed FBS, 5.12 µM	–	–	13
RPMI 5 mM glucose + 10% dialyzed FBS, 15.4 µM	–	–	22.2
RPMI 5 mM glucose + 10% dialyzed FBS, 46.1 µM	–	–	16.4

AUC of viability dose-response curve
Conditions	NOMO1 [4]	P12-Ichikawa [5]	SEM cells [6]
HPLM + 10% dialyzed FBS	242	183	162
RPMI 5 mM glucose + 10% FBS	211	177	171
RPMI 5 mM glucose + 10% dialyzed FBS	226	206	193

COc1cc(C)c(Sc2cnc(NC(=O)c3ccc(CNC(C)C(C)C)cc3)s2)cc1C(=O)N1CCN(C(C)=O)CC1 (stereo not given)
cell viability [%]
Conditions	NOMO1 [1]	P12-Ichikawa [2]	SEM cells [3]
HPLM + 10% dialyzed FBS, 0.000781 µM	–	118	119
HPLM + 10% dialyzed FBS, 0.00234 µM	–	125	134
HPLM + 10% dialyzed FBS, 0.00702 µM	–	119	124
HPLM + 10% dialyzed FBS, 0.0211 µM	–	129	118
HPLM + 10% dialyzed FBS, 0.0632 µM	–	119	96.6
HPLM + 10% dialyzed FBS, 0.19 µM	–	118	105
HPLM + 10% dialyzed FBS, 0.569 µM	–	117	96.2
HPLM + 10% dialyzed FBS, 1.71 µM	–	107	104
HPLM + 10% dialyzed FBS, 5.12 µM	–	103	81.7
HPLM + 10% dialyzed FBS, 15.4 µM	–	90.1	42
HPLM + 10% dialyzed FBS, 46.1 µM	–	109	108
RPMI 5 mM glucose + 10% FBS, 0.000781 µM	117	–	115
RPMI 5 mM glucose + 10% FBS, 0.00234 µM	119	–	135
RPMI 5 mM glucose + 10% FBS, 0.00702 µM	128	–	111
RPMI 5 mM glucose + 10% FBS, 0.0211 µM	131	–	129
RPMI 5 mM glucose + 10% FBS, 0.0632 µM	117	–	109
RPMI 5 mM glucose + 10% FBS, 0.19 µM	126	–	112
RPMI 5 mM glucose + 10% FBS, 0.569 µM	134	–	110
RPMI 5 mM glucose + 10% FBS, 1.71 µM	108	–	112
RPMI 5 mM glucose + 10% FBS, 5.12 µM	105	–	73.9
RPMI 5 mM glucose + 10% FBS, 15.4 µM	107	–	43.4
RPMI 5 mM glucose + 10% FBS, 46.1 µM	126	–	121
RPMI 5 mM glucose + 10% dialyzed FBS, 0.000781 µM	–	–	124
RPMI 5 mM glucose + 10% dialyzed FBS, 0.00234 µM	–	–	141
RPMI 5 mM glucose + 10% dialyzed FBS, 0.00702 µM	–	–	116
RPMI 5 mM glucose + 10% dialyzed FBS, 0.0211 µM	–	–	118
RPMI 5 mM glucose + 10% dialyzed FBS, 0.0632 µM	–	–	121
RPMI 5 mM glucose + 10% dialyzed FBS, 0.19 µM	–	–	118
RPMI 5 mM glucose + 10% dialyzed FBS, 0.569 µM	–	–	109
RPMI 5 mM glucose + 10% dialyzed FBS, 1.71 µM	–	–	102
RPMI 5 mM glucose + 10% dialyzed FBS, 5.12 µM	–	–	79.9
RPMI 5 mM glucose + 10% dialyzed FBS, 15.4 µM	–	–	49.7
RPMI 5 mM glucose + 10% dialyzed FBS, 46.1 µM	–	–	132

AUC of viability dose-response curve
Conditions	NOMO1 [4]	P12-Ichikawa [5]	SEM cells [6]
HPLM + 10% dialyzed FBS	430	448	386
RPMI 5 mM glucose + 10% FBS	460	418	436
RPMI 5 mM glucose + 10% dialyzed FBS	445	443	425

CC(COc1ccccc1)N(CCCl)Cc1ccccc1 (stereo not given)
cell viability [%], SEM cells [3]
Conditions	HPLM + 10% dialyzed FBS	RPMI 5 mM glucose + 10% FBS
0.000781 µM	89.3	101
0.00234 µM	102	123
0.00702 µM	121	127
0.0211 µM	110	120
0.0632 µM	116	112
0.19 µM	115	135
0.569 µM	104	131
1.71 µM	110	128
5.12 µM	123	148
15.4 µM	119	147
46.1 µM	89.4	115

AUC of viability dose-response curve
Conditions	NOMO1 [4]	P12-Ichikawa [5]	SEM cells [6]
HPLM + 10% dialyzed FBS	304	367	465
RPMI 5 mM glucose + 10% FBS	280	372	451
RPMI 5 mM glucose + 10% dialyzed FBS	316	380	469

— the supplement of paper PMC11451515
